Series [1] has as its system T. gondii bradyzoites (EGS strain). Put plainly: EGS strain bradyzoite assay (cysts in HFF, dolichos/BAG1 staining). The format is cell-based, Toxoplasma gondii. To be noted: for IC50: EGS strain. The method, then:
(§1) HFF cells were grown in IMDM (1×, [+] glutamine, [+] 25 mM HEPES, [+] Phenol red, 10% FBS, [Gibco, Denmark]) on removable, sterile glass disks in the bottom of a clear, flat-bottomed 24-well plate. Cultures were infected with 3×10^4 parasites (EGS strain) per well, in 0.5 mL media and plate was returned to incubator at 37° C. overnight. The following day, the media was removed and clear IMDM and compounds were added to making various concentrations of the drug, to a total volume of 0.5 mL. Two wells were filled with media only, as a control. Plates were returned to the 37° C. incubator for 72 hours.
Efficacy was determined following fixation. Staining was used to determine the numbers of cysts in cultures without and with treatment with the test compounds. Cells were fixed using 4% paraformaldehyde and stained with Fluorescein-labeled Dolichos Biflorus Agglutinin, DAPI, and anti-BAG1, and anti-SAG1. Disks were removed and mounted onto glass slides and visualized using microscopy (Nikon Tl7). Slides were also scanned using a CRi Pannoramic Scan Whole Slide Scanner and viewed using Panoramic Viewer Software.
as §1, with “[gibco,” for “[Gibco,”, “2” for “Two”, “72 hours, and checked once every 24” for “72”, “hours. If tachyzoites were visible in the control before 72 hours, the cells were fixed and stained.” for “hours.”
Cells were fixed using 4% paraformaldehyde and stained with Fluorescein-labeled Dolichos Biflorus Agglutinin, DAPI, and BAG1. Disks were removed and mounted onto glass slides and visualized using microscopy (Nikon Tl7). Slides were scanned using a CRi Pannoramic Scan Whole Slide Scanner and viewed using Panoramic Viewer Software. Effects of the compounds were quantified by counting cysts in the controls and treated cells. Cysts and persisting organisms were counted in a representative field of view and then multiplied by a factor determined by the total area of the disk in order to estimate the number of cysts and organisms in each condition.
HFF cells were grown in IMDM (1×, [+] glutamine, [+] 25 mM HEPES, [+] Phenol red, 10% FBS, [gibco, Denmark]) on removable, sterile glass disks in the bottom of a clear, flat-bottomed 24-well plate. Cultures were infected with 3×10^4 parasites (EGS strain) per well, in 0.5 mL media and plate was returned to incubator at 37° C. overnight. The following day, the media was removed and clear IMDM and compounds were added to making various concentrations of the drug, to a total volume of 0.5 mL. 2 wells were filled with media only, as a control. Plates were returned to the 37° C. incubator for 72 hours, and checked once every 24 hours. If tachyzoites were visible in the control before 72 hours, the cells were fixed and stained. Cells were fixed using 4% paraformaldehyde and stained with Fluorescein-labeled Dolichos Biflorus Agglutinin, DAPI, and BAG1. Disks were removed and mounted onto glass slides and visualized using microscopy (Nikon Tl7). Slides were scanned using a CRi Pannoramic Scan Whole Slide Scanner and viewed using Panoramic Viewer Software. Effects of the compounds were quantified by counting cysts in the controls and treated cells. Cysts and persisting organisms were counted in a representative field of view and then multiplied by a factor determined by the total area of the disk in order to estimate the number of cysts and organisms in each condition. Data was collected using Gen5 software. IC50 was calculated by graphical analysis in Excel.

For series [2], the system named is P. falciparum strains D6, TM91-C235, W2, C2B. Briefly: Malaria SYBR Green I-Based Fluorescence (MSF) Assay. The format is cell-based, Plasmodium falciparum. The note with it: Plasmodium falciparum. In a few lines: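 Growth inhibition of P. falciparum strains in a microtiter drug sensitivity assay, with parasite proliferation measured as malarial DNA content via SYBR Green I intercalation fluorescence. Strains: drug-sensitive D6, multi-drug resistant TM91-C235, chloroquine-resistant W2, and atovaquone-resistant C2B.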

A short description of series [3]: Microsomal metabolic stability, human. The note with it: for half-life: human, liver microsomes. It is filed as in vitro ADME. Background: Microsomes from liver hold many membrane-bound enzymes, among them those of drug oxidation.
The mark [4] stands for this setting: D6 strain, read-out: Pf D6 IC50.

Read-outs that look alike come from different tables or passages of the source.

Consider `Cc1[nH]c2c(c(=O)c1-c1ccc(Oc3ccc(OC(F)(F)F)cc3)cc1)CCCC2` [JAG21, 2-methyl-3-(4-(4-(trifluoromethoxy)phenoxy)phenyl)-5,6,7,8-tetrahydroquinolin-4(1H)-one], for which, in series [1] (1 μM and 10 μM, EGS), the “reduction in the number of true cysts and small organisms” value is given as “statistically significant reduction”. Also, in series [1] (Toxoplasma gondii, read-out: IC 90 against bradyzoites), the IC90 stood at 500 nM. For the same compound, the Pseudocysts in series [1] (part a, 1 μM) was 29 ± 6; in series [1] (part a, 10 μM), 25.5 ± 5.1; in series [1] (part b, 1 μM) it was 2955; in series [1] (part b, 10 μM), 2638. Also, the Small organisms in series [1] (part a, 1 μM) stood at 90.5 ± 33.5; in series [1] (part a, 10 μM) it was 73.25 ± 30.9; in series [1] (part b, 1 μM) it was 9734; in series [1] (part b, 10 μM), 7309. The “True Cysts” value stood at 0.5 ± 0.6 in series [1] (part a, 1 μM); 0.25 ± 0.5 in series [1] (part a, 10 μM); 54 in series [1] (part b, 1 μM); 22 in series [1] (part b, 10 μM). Moreover, the IC50 in series [2] (setting [4]) was 14.3 nM; in series [2] (including all drug resistant strains, read-out: inhibitor of Plasmodium falciparum) it was 40 to 65 nM. Moreover, the “Human liver microsomes T1/2” value in series [3] is given as “∞”. Further, the “remaining after 45 mins in human liver microsomes” value in series [3] (45 mins) is listed as greater than 99%.

Turning to `Cc1[nH]c2c(c(=O)c1-c1ccc(Oc3ccccc3)cc1)CCCC2` [MJM170], the “reduction of EGS bradyzoites in cysts in vitro” value in series [1] was “markedly reduces EGS bradyzoites in cysts”. Moreover, the IC50 in series [1] (Toxoplasma gondii, read-out: Brady IC50) is 1000 to 10000 nM; in series [1] (Toxoplasma gondii, read-out: T. gondii Bradyzoite IC50), 4000 nM; in series [2] (C2B strain (multi-drug resistant, atovaquone resistant), read-out: P. falciparum IC50), 10 nM; in series [2] (C2B strain, read-out: SYBR Green C2B IC50), 10 nM; in series [2] (D6 strain (drug sensitive), read-out: P. falciparum IC50), 10 nM; in series [2] (setting [4]) it was 10 nM. Moreover, the IC50 in series [2] (D6 strain, read-out: SYBR Green D6 IC50) was 10 nM; in series [2] (TM91C235 strain (multi-drug resistant), read-out: P. falciparum IC50) it was 30 nM; in series [2] (TM91C235 strain, read-out: SYBR Green C235 IC50), 30 nM; in series [2] (W2 strain (chloroquine resistant), read-out: P. falciparum IC50), 30 nM; in series [2] (W2 strain, read-out: SYBR Green W2 IC50), 30 nM; in series [2] (wild type and multi-drug resistant, all strains, read-out: IC50 against P. falciparum) it was less than 30 nM. Further, the “Human microsomal stability T1/2” value in series [3] was 2.438 h. For the same compound, the figures for the half-life in series [3] (read-out: Human liver microsomes T1/2) and in series [3] (read-out: Human microsomal stability T1/2) were 2.44 h and 2.43 h, respectively.

These data come from patent US11414385B2, “Compounds and methods for treating, detecting, and identifying compounds to treat apicomplexan parasitic diseases” (The University of Chicago, priority 2015, dated 2022).
